Assay results: ChEMBL document CHEMBL3272080, “Analogues of luteinizing hormone releasing factor modified at positions 2, 6, and 10” (J Med Chem, 1976)
*1 amine or outer side, *2 acyl side, *3 side chain or, on linkers, in order; H or OH if unused. Where a SMILES comes first, the peptide text is derived from it. [ ]: non-standard residue; d: D form. X1 = CCCCCCCCCCCCNCCC[C@@H](N[*:1])C(=O)[*:2]; pGlu = O=C1CC[C@@H](C(=O)O)N1

Legend:
[1] = Retardation factor in 1-butanol-pyridine-0.1% acetic acid at 5:3:11 ratio by TLC; type: physicochemical
[2] = Retardation factor in 2-butanol-0.1 N acetic acid at 1:1 ratio by TLC; type: physicochemical
[3] = Retardation factor in 1-butanol-acetic acid-water at 4:1:5 ratio by TLC; type: physicochemical; conditions: buffer
[4] = Retardation factor in 1-butanol-ethyl acetate-acetic acid-water at 1:1:1:1 ratio by TLC; type: physicochemical; conditions: buffer
[5] = Retardation factor in 1-butanol-2-propanol-1 N ammonium hydroxide-ethyl acetate at 1:1:2.5:1 ratio by TLC; type: physicochemical
[6] = Retardation factor in ethyl acetate-pyridine-acetic acid-water at 5:5:1:3 ratio by TLC; type: physicochemical; conditions: buffer
[7] = Increase in luteinizing hormone secretion in rat anterior pituitary cells relative to luteinizing hormone releasing factor; type: functional, Pituitary gland cell
[8] = Inhibition of LRF-induced luteinizing hormone secretion in rat anterior pituitary cells relative to [des-His2,D-Ala6]-LRF; type: functional, Pituitary gland cell
[9] = Retardation factor in 2-butanol-water at 1:1 ratio by TLC; type: physicochemical; conditions: buffer
[10] = Retardation factor in 2-butanol-0.1 N ammonium hydroxide at 1:1 ratio by TLC; type: physicochemical

## CC(C)C[C@H](NC(=O)[C@@H](CCCN)NC(=O)[C@H](Cc1ccc(O)cc1)NC(=O)[C@H](CO)NC(=O)[C@H](Cc1c[nH]c2ccccc12)NC(=O)[C@H](Cc1cnc[nH]1)NC(=O)[C@@H]1CCC(=O)N1)C(=O)N[C@@H](CCCNC(=N)N)C(=O)N1CCC[C@H]1C(=O)NCC(N)=O
[1]
  Rf: 0.45
[2]
  Rf: 0.24
[3]
  Rf: 0.35
[4]
  Rf: 0.62
[5]
  Rf: 0.25
[6]
  Rf: 0.6
[7]
  fold change (FC): 182

## CCNC(=O)[C@@H]1CCCN1C(=O)[C@H](CCCNC(=N)N)NC(=O)[C@H](CC(C)C)NC(=O)[C@@H](CCCCN)NC(=O)[C@H](Cc1ccc(O)cc1)NC(=O)[C@H](CO)NC(=O)[C@H](Cc1c[nH]c2ccccc12)NC(=O)[C@H](Cc1cnc[nH]1)NC(=O)[C@@H]1CCC(=O)N1
[1]
  Rf: 0.53
[2]
  Rf: 0.27
[3]
  Rf: 0.4
[4]
  Rf: 0.66
[5]
  Rf: 0.31
[6]
  Rf: 0.63
[7]
  fold change (FC): 1726

## CCNC(=O)[C@@H]1CCCN1C(=O)[C@H](CCCNC(=N)N)NC(=O)[C@H](CC(C)C)NC(=O)[C@@H](CCCN)NC(=O)[C@H](Cc1ccc(O)cc1)NC(=O)[C@H](CO)NC(=O)[C@H](Cc1c[nH]c2ccccc12)NC(=O)[C@H](Cc1cnc[nH]1)NC(=O)[C@@H]1CCC(=O)N1
[1]
  Rf: 0.47
[2]
  Rf: 0.29
[3]
  Rf: 0.26
[4]
  Rf: 0.65
[5]
  Rf: 0.34
[6]
  Rf: 0.69
[7]
  fold change (FC): 682

## CC(C)C[C@H](NC(=O)[C@@H](CCCN)NC(=O)[C@H](Cc1ccc(O)cc1)NC(=O)[C@H](CO)NC(=O)[C@H](Cc1c[nH]c2ccccc12)NC(=O)[C@@H]1CCC(=O)N1)C(=O)N[C@@H](CCCNC(=N)N)C(=O)N1CCC[C@H]1C(=O)NCC(N)=O
[1]
  Rf: 0.54
[2]
  Rf: 0.31
[3]
  Rf: 0.46
[8]
  fold change (FC): 134
[4]
  Rf: 0.74
[5]
  Rf: 0.28
[9]
  Rf: 0.24
[6]
  Rf: 0.67

## CCNC(=O)[C@@H]1CCCN1C(=O)[C@H](CCCNC(=N)N)NC(=O)[C@H](CC(C)C)NC(=O)[C@@H](CCCCN)NC(=O)[C@H](Cc1ccc(O)cc1)NC(=O)[C@H](CO)NC(=O)[C@H](Cc1c[nH]c2ccccc12)NC(=O)[C@@H]1CCC(=O)N1
[1]
  Rf: 0.59
[2]
  Rf: 0.35
[3]
  Rf: 0.49
[8]
  fold change (FC): 97
[4]
  Rf: 0.76
[5]
  Rf: 0.37
[9]
  Rf: 0.31
[6]
  Rf: 0.71

## CCNC(=O)[C@@H]1CCCN1C(=O)[C@H](CCCNC(=N)N)NC(=O)[C@H](CC(C)C)NC(=O)[C@@H](CCCN)NC(=O)[C@H](Cc1ccc(O)cc1)NC(=O)[C@H](CO)NC(=O)[C@H](Cc1c[nH]c2ccccc12)NC(=O)[C@@H]1CCC(=O)N1
[1]
  Rf: 0.63
[2]
  Rf: 0.36
[3]
  Rf: 0.54
[8]
  fold change (FC): 105
[4]
  Rf: 0.78
[5]
  Rf: 0.38
[9]
  Rf: 0.28
[6]
  Rf: 0.71

## CCCCCCCCCCCCNCCCC[C@@H](NC(=O)[C@H](Cc1ccc(O)cc1)NC(=O)[C@H](CO)NC(=O)[C@H](Cc1c[nH]c2ccccc12)NC(=O)[C@H](Cc1cnc[nH]1)NC(=O)[C@@H]1CCC(=O)N1)C(=O)N[C@@H](CC(C)C)C(=O)N[C@@H](CCCNC(=N)N)C(=O)N1CCC[C@H]1C(=O)NCC(N)=O
[1]
  Rf: 0.56
[2]
  Rf: 0.38
[3]
  Rf: 0.4
[4]
  Rf: 0.74
[5]
  Rf: 0.44
[9]
  Rf: 0.37
[6]
  Rf: 0.35
[7]
  fold change (FC): 164
[10]
  Rf: 0.37

## CC(=O)NCCCC[C@@H](NC(=O)[C@H](Cc1ccc(O)cc1)NC(=O)[C@H](CO)NC(=O)[C@H](Cc1c[nH]c2ccccc12)NC(=O)[C@H](Cc1cnc[nH]1)NC(=O)[C@@H]1CCC(=O)N1)C(=O)N[C@@H](CC(C)C)C(=O)N[C@@H](CCCNC(=N)N)C(=O)N1CCC[C@H]1C(=O)NCC(N)=O
[1]
  Rf: 0.56
[2]
  Rf: 0.34
[3]
  Rf: 0.39
[4]
  Rf: 0.73
[5]
  Rf: 0.43
[9]
  Rf: 0.34
[6]
  Rf: 0.69
[7]
  fold change (FC): 274
[10]
  Rf: 0.33

## CCCCCCCCCCCCNCCC[C@@H](NC(=O)[C@H](Cc1ccc(O)cc1)NC(=O)[C@H](CO)NC(=O)[C@H](Cc1c[nH]c2ccccc12)NC(=O)[C@H](Cc1cnc[nH]1)NC(=O)[C@@H]1CCC(=O)N1)C(=O)N[C@@H](CC(C)C)C(=O)N[C@@H](CCCNC(=N)N)C(=O)N1CCC[C@H]1C(=O)NCC(N)=O
[1]
  Rf: 0.59
[2]
  Rf: 0.39
[3]
  Rf: 0.4
[4]
  Rf: 0.72
[5]
  Rf: 0.43
[9]
  Rf: 0.38
[6]
  Rf: 0.34
[7]
  fold change (FC): 290
[10]
  Rf: 0.36

## CC(=O)NCCC[C@@H](NC(=O)[C@H](Cc1ccc(O)cc1)NC(=O)[C@H](CO)NC(=O)[C@H](Cc1c[nH]c2ccccc12)NC(=O)[C@H](Cc1cnc[nH]1)NC(=O)[C@@H]1CCC(=O)N1)C(=O)N[C@@H](CC(C)C)C(=O)N[C@@H](CCCNC(=N)N)C(=O)N1CCC[C@H]1C(=O)NCC(N)=O
[1]
  Rf: 0.57
[2]
  Rf: 0.34
[3]
  Rf: 0.38
[4]
  Rf: 0.7
[5]
  Rf: 0.43
[9]
  Rf: 0.33
[6]
  Rf: 0.66
[7]
  fold change (FC): 101
[10]
  Rf: 0.34

## CCCCCCCCCCCCNCCCC[C@@H](NC(=O)[C@H](Cc1ccc(O)cc1)NC(=O)[C@H](CO)NC(=O)[C@H](Cc1c[nH]c2ccccc12)NC(=O)[C@H](Cc1cnc[nH]1)NC(=O)[C@@H]1CCC(=O)N1)C(=O)N[C@@H](CC(C)C)C(=O)N[C@@H](CCCNC(=N)N)C(=O)N1CCC[C@H]1C(=O)NCC
[1]
  Rf: 0.61
[2]
  Rf: 0.43
[3]
  Rf: 0.42
[4]
  Rf: 0.72
[5]
  Rf: 0.47
[9]
  Rf: 0.39
[6]
  Rf: 0.4
[7]
  fold change (FC): 1038
[10]
  Rf: 0.38

## CCCCCCCCCCCCNCCC[C@@H](NC(=O)[C@H](Cc1ccc(O)cc1)NC(=O)[C@H](CO)NC(=O)[C@H](Cc1c[nH]c2ccccc12)NC(=O)[C@H](Cc1cnc[nH]1)NC(=O)[C@@H]1CCC(=O)N1)C(=O)N[C@@H](CC(C)C)C(=O)N[C@@H](CCCNC(=N)N)C(=O)N1CCC[C@H]1C(=O)NCC
[1]
  Rf: 0.62
[2]
  Rf: 0.43
[3]
  Rf: 0.45
[4]
  Rf: 0.72
[5]
  Rf: 0.46
[9]
  Rf: 0.4
[6]
  Rf: 0.38
[7]
  fold change (FC): 490
[10]
  Rf: 0.37

## CCCCCCCCCCCCNCCCC[C@@H](NC(=O)[C@H](Cc1ccc(O)cc1)NC(=O)[C@H](CO)NC(=O)[C@H](Cc1c[nH]c2ccccc12)NC(=O)[C@@H]1CCC(=O)N1)C(=O)N[C@@H](CC(C)C)C(=O)N[C@@H](CCCNC(=N)N)C(=O)N1CCC[C@H]1C(=O)NCC(N)=O
[1]
  Rf: 0.66
[2]
  Rf: 0.46
[3]
  Rf: 0.52
[8]
  fold change (FC): 284
[4]
  Rf: 0.78
[5]
  Rf: 0.44
[9]
  Rf: 0.44
[6]
  Rf: 0.48
[10]
  Rf: 0.43

## CCCCCCCCCCCCNCCCC[C@@H](NC(=O)[C@H](Cc1ccc(O)cc1)NC(=O)[C@H](CO)NC(=O)[C@H](Cc1c[nH]c2ccccc12)NC(=O)[C@@H]1CCC(=O)N1)C(=O)N[C@@H](CC(C)C)C(=O)N[C@@H](CCCNC(=N)N)C(=O)N1CCC[C@H]1C(=O)NCC
[1]
  Rf: 0.73
[2]
  Rf: 0.52
[3]
  Rf: 0.63
[8]
  fold change (FC): 276
[4]
  Rf: 0.83
[5]
  Rf: 0.47
[9]
  Rf: 0.46
[6]
  Rf: 0.53
[10]
  Rf: 0.45

## CC(C)C[C@H](NC(=O)[C@@H](CCCCN)NC(=O)[C@H](Cc1ccc(O)cc1)NC(=O)[C@H](CO)NC(=O)[C@H](Cc1c[nH]c2ccccc12)NC(=O)[C@H](Cc1cnc[nH]1)NC(=O)[C@@H]1CCC(=O)N1)C(=O)N[C@@H](CCCNC(=N)N)C(=O)N1CCC[C@H]1C(=O)NCC(N)=O
[1]
  Rf: 0.42
[2]
  Rf: 0.24
[3]
  Rf: 0.31
[4]
  Rf: 0.57
[5]
  Rf: 0.24
[6]
  Rf: 0.58
[7]
  fold change (FC): 383

## CCCCCCCCCCCCNCCC[C@@H](NC(=O)[C@H](Cc1ccc(O)cc1)NC(=O)[C@H](CO)NC(=O)[C@H](Cc1c[nH]c2ccccc12)NC(=O)[C@@H]1CCC(=O)N1)C(=O)N[C@@H](CC(C)C)C(=O)N[C@@H](CCCNC(=N)N)C(=O)N1CCC[C@H]1C(=O)NCC ([pGlu]WSY[X1]LRP-NHEt)
[1]
  Rf: 0.71
[2]
  Rf: 0.51
[3]
  Rf: 0.64
[8]
  fold change (FC): 153
[4]
  Rf: 0.84
[5]
  Rf: 0.49
[9]
  Rf: 0.47
[6]
  Rf: 0.55
[10]
  Rf: 0.46

## CCCCCCCCCCCCNCCC[C@@H](NC(=O)[C@H](Cc1ccc(O)cc1)NC(=O)[C@H](CO)NC(=O)[C@H](Cc1c[nH]c2ccccc12)NC(=O)[C@@H]1CCC(=O)N1)C(=O)N[C@@H](CC(C)C)C(=O)N[C@@H](CCCNC(=N)N)C(=O)N1CCC[C@H]1C(=O)NCC(N)=O ([pGlu]WSY[X1]LRPG-NH2)
[1]
  Rf: 0.67
[2]
  Rf: 0.47
[3]
  Rf: 0.53
[8]
  fold change (FC): 278
[4]
  Rf: 0.78
[5]
  Rf: 0.44
[9]
  Rf: 0.45
[6]
  Rf: 0.48
[10]
  Rf: 0.43

## CC(C)C[C@H](NC(=O)[C@@H](CCCCN)NC(=O)[C@H](Cc1ccc(O)cc1)NC(=O)[C@H](CO)NC(=O)[C@H](Cc1c[nH]c2ccccc12)NC(=O)[C@@H]1CCC(=O)N1)C(=O)N[C@@H](CCCNC(=N)N)C(=O)N1CCC[C@H]1C(=O)NCC(N)=O ([pGlu]WSY[dK]LRPG-NH2)
[1]
  Rf: 0.47
[2]
  Rf: 0.33
[3]
  Rf: 0.35
[8]
  fold change (FC): 123
[4]
  Rf: 0.73
[5]
  Rf: 0.26
[9]
  Rf: 0.25
[6]
  Rf: 0.71
